Entries after “also recorded” stand apart in the source; their conditions may differ.
How the values were obtained:
[1] = test system: C286.8A; assay: Competitive EIA, peptide epitope mapping of monoclonal antibody C286.8A; assay type: binding, Murine; details: Figure 4; plates coated with 50 ng of synthetic APP 695 (597-638); C286.8A (80 ng of IgG) preincubated 60 min at room temperature with competitor peptide
Method: Following incubation for 60 min at room temperature, plates were washed, and the amount of bound antibody determined by development with horseradish peroxidase-coupled goat-anti mouse polyclonal antibody according to standard procedures (Wunderlich et al., 1992, J. of Immunol. Methods 147:1). Percent competition (% C) of antibody binding to the plate was calculated from the absorbance at 450 nm data using the following equation: % C = 1.0 -(O.D. (+ competitor) - O.D. blank)/(O.D. (- competitor) - O.D. blank)X 100 [formula]

[2] = test system: human brain P-2 derived aprotinin binding pool Y protease (chymotryptic-like serine protease); assay: Immunoblot assay of APP degradation by the pool Y serine protease; assay type: biochemical; details: pool Y 14 ug/ml, APP 35 nM
Method: Reactions were initiated at 37°C by enzyme addition to achieve the following initial component concentrations in a 16 ul volume: pool Y # 3-5 (14 ug/ml) after purification on a superdex 75 column, APP (35 nM), in 30 mM Mes buffer pH 6.5. Reactions were terminated by addition of 7.5 ul of 3X sample buffer. Immunoblots were developed using the rabbit antiserum to the APP C-terminal domain according to example 8. […] The following controls were also run: no inhibitor (lane 12), ethanol (lane 3), methanol (lane 5), pool Y only (lane 2), APP only at time zero (lane 13) and 4 hr (lane 14). Lanes 1 and 7 respectively show prestained Mr markers and the C-100 standard. Panel (b) 1.8 uM alpha-1-antichymotrypsin (lane 2), 156 uM TLCK (lane 3), 46 uM chymotrypsin inhibitor I (lane 4), 119 uM chymotrypsin inhibitor II (lane 5), 4 uM alpha-2-antiplasmin (lane 6), 51 uM alpha-1-antitrypsin (lane 7), 98 uM chymostatin administered in DMSO (lane 10), 153 uM methanolic TPCK (lane 12). Controls included: no inhibitor (lane 8), DMSO (lane 11), and methanol (lane 13). Pre-stained molecular weight markers and C-100 standards were applied to lanes 1 and 9 respectively. Incubation times of 4 and 2 hr were used in panels a) and b) respectively.
• i) Sub-cellular fractionation. This was performed essentially as described in Method 1, above. • ii) Solubilization. This was performed essentially as described in Method 1, above. • iii) Aprotinin-sepharose chromatography. Soluble (230 mg), P-2 (216 mg) or microsomal fraction (47 mg) described above was applied to a column of aprotinin sepharose (Sigma, catalog # 42268, 1.5 X 10 cm), previously equilibrated with 20 mM Tris HCl buffer pH 7.0. Once loaded the column was washed with equilibration buffer (100 ml), and then eluted with 60 ml of 50 mM sodium acetate buffer pH 5.0 containing 500 mM sodium chloride. The flow rate was 1.0 ml/min throughout. Eluted fractions (4 ml) were monitored at 280 nm, analysed using the Bradford protein assay, and examined for APP C-terminal processing activity as described in Example 8, using recombinant APP derived by expression in a baculo virus system. […] Active fractions from the purification of the P-2 fraction on aprotinin-sepharose were pooled, dialyzed against 50 mM Tris-HCl pH 7.5 and applied to a mono-Q column (HR 5/5), previously equilibrated with dialysis buffer. Once loaded, the column was eluted essentially as described in Method 1. above. Active fractions (2 ml), were monitored for A 280 nm, total protein (Bradford assay), and for their capacity for baculo virus derived APP C-terminal processing. […] Pools X, Y, and Z were each concentrated to either 2 ml (pool X and Y) or 3.6 ml (pool z) and separately applied to a Superdex 75 column (Pharmacia, Piscataway NJ.) previously equilibrated with 50 mM Tris-HCl pH 7.5, containing 150 mM sodium chloride. Once loaded, the column was eluted with equilibration buffer. Chromatography was performed at a flow rate of 1.0 ml/min throughout. Fractions (1 ml) were monitored for A 280 nm, total protein (Bradford assay) and for C-terminal processing of baculo expressed APP. The gel filtration was calibrated by chromatography of each of the following standard proteins: Thyroglobulin (670 kDa), bovine gamma globulin (158 kDa), ovalbumin (44 kDa), myoglobin (17.5 kDa) and vitamin B 12 (1.35 kDa).

[3] = test system: human AD brain fraction P2 VII APP degrading activity; assay: Immunoblot assay of APP 695 degradation by Mono-Q pool P2 VII; assay type: biochemical; details: trial A, PMSF 0.8mM, pH 6.5, 24 hrs, 37°C
Method: ii) Solubilization. The membranous control or AD subfractions (P-2 or M) were solubilized by adjusting to the following conditions: 2% (v/v) Triton X-100 containing 50 mM Tris HCl buffer, pH 7.5. After stirring at 4°C for 3.5 hrs, the suspensions were centrifuged at 105,000 g x 60 min in a Beckman 70 Ti rotor. The following final protein concentrations were used in solubilization, for P-2 (3.9 to 4.0 mg/ml); and for M (1.4 to 1.6 mg/ml). Solubilized supernatants were stored at -70°C for later use. The soluble fraction was not treated with detergent but rather was adjusted to 50 mM in Tris HCl, pH 7.5, by the addition of stock 1M buffer. iii) Ion-exchange chromatography. Chromatography was performed using a Gilson gradient liquid chromatograph (model 305 and 306 pumps) equipped with a 50 ml Rheodyne stainless steel loop injector model 7125, and connected to a Mono Q HR 10/10 column (Pharmacia, Piscataway, NJ). Absorbance of column effluent was monitored at 280 nm using a Pharmacia UV-M detector and a Kippen-zonen chart recorder. […] In the initial studies, eluted fractions were monitored for A280 nm, total protein (Bradford assay), and peptidase activity (as decsribed in Examples 2 and 3). […] Fractions were monitored for A 280 nm, total protein (Bradford assay), peptidase activity, and activity for C-terminal processing of recombinant APP. […]

[4] = test system: P-2 enzyme (peak B); assay: P-2 enzyme (peak B) further purified on Superose 6HR (17.5 ug/ml) in acetate, Mes and Tris pH 5.0; details: human, 37 C, up to 24hr
[5] = test system: cathepsin D (human liver, Cal Biochem); assay: Cathepsin D (2.8 ug/ml) in cocktail buffer 130 mM in each of acetate, Mes and Tris pH 5.0; details: 37 C, up to 24hr
[6] = test system: cathepsin D; assay: Cathepsin D (2.5 ug/ml), sodium chloride (75 mM), 135 mM in each of tris, Mes and acetate buffer pH 5.0; details: human, 37 C
[7] = test system: P-2 peak B enzyme; assay: P-2 peak B enzyme (7.5 ug/ml), sodium chloride (75 mM), 135 mM in each of tris, Mes and acetate buffer pH 5.0; details: human, 37 C
[8] = Mono-Q ion-exchange fractions of P-2, S and M subfractions of control and AD human cortex; details: 37°C, up to 24 hrs

In the case of “597-624: Synthetic peptide containing amino acids 597-624 of human APP695; amino acids 1-28 of the beta-amyloid sequence (LTETKTTVELLPVNGEFSLDDLQPWHSF; isoform APP695; UniProt P05067 597-624, looked up, fragment)”, the “ability to block binding of C286.8A to APP 597-638” value (“ability to block binding of C286.8A” for short) [1] is reported as “able to inhibit C286.8A binding in a dose-dependent fashion”.
In the case of “597-638: Synthetic peptide containing amino acids 597-638 of human APP695; amino acids 1-42 of the beta-amyloid sequence”, the “ability to block binding of C286.8A” value [1] is reported as “able to inhibit C286.8A binding in a dose-dependent fashion”.
For CC(C)CC(NC(=O)C1OC1C(=O)O)C(=O)NCCCCN=C(N)N (stereo not shown) [E-64], the “Inhibitor sensitivity of the pool Y protease (APP degradation)” value (from here on “Inhibitor sensitivity”) ([2]; 350 uM E-64, Mes pH 6.5, 4 hr, Figure 18a) was “unaffected”.
In the case of O=S(=O)(F)Cc1ccccc1 [PMSF], the “Inhibitor sensitivity” value ([2]; 860 uM PMSF in methanol, Mes pH 6.5, 4 hr, Figure 18a) is reported as “inhibited”, the “Inhibitors (pH 6.5): compounds causing complete inhibition are listed” value ([3]; 11.5 kDa fragment) is reported as “PMSF” and the “Inhibitors (pH 6.5): compounds causing complete inhibition are listed” value ([3]; >11.5 kDa fragment) is reported as “PMSF”.
In the case of Cc1ccc(S(=O)(=O)N[C@@H](CCCCN)C(=O)CCl)cc1 [TLCK], the “Inhibitor sensitivity” value ([2]; 156 uM TLCK, Mes pH 6.5, 2 hr, Figure 18b) is reported as “did not inhibit at all”.
In the case of Cc1ccc(S(=O)(=O)N[C@@H](Cc2ccccc2)C(=O)CCl)cc1 [TPCK], the “Inhibitor sensitivity” value ([2]; 153 uM methanolic TPCK, Mes pH 6.5, 2 hr, Figure 18b) is reported as “strongly inhibited”.
For N=C(N)c1ccccc1 [benzamidine], the “Inhibitor sensitivity” value ([2]; 5 mM benzamidine, Mes pH 6.5, 4 hr, Figure 18a) was “without effect”.
In the case of CC(C)C[C@H](NC(=O)[C@@H](NC(=O)N[C@@H](Cc1ccccc1)C(=O)O)[C@@H]1CCN=C(N)N1)C(=O)N[C@H](C=O)Cc1ccccc1 [chymostatin], the “Inhibitor sensitivity” value ([2]; 98 uM chymostatin administered in DMSO, Mes pH 6.5, 2 hr, Figure 18b) is reported as “Weak inhibition”.
In the case of “APP 597-612: Synthetic peptide containing amino acids 597-612 of human APP695; amino acids 1-16 of the beta-amyloid sequence (LTETKTTVELLPVNGE; isoform APP695; UniProt P05067 597-612, looked up, fragment)”, the “ability to block binding of C286.8A” value [1] is reported as “able to inhibit C286.8A binding in a dose-dependent fashion”.
For “APP 608-624: Synthetic peptide, amino acids 608-624 of human APP695; beta-amyloid peptide sequence 12-28 (PVNGEFSLDDLQPWHSF; isoform APP695; UniProt P05067 608-624, looked up, fragment)”, the “ability to block binding of C286.8A” value [1] was “did not inhibit binding”.
For “APP 621-631: Synthetic peptide, amino acids 621-631 of human APP695; beta-amyloid peptide sequence 25-35 (WHSFGADSVPA; isoform APP695; UniProt P05067 621-631, looked up, fragment)”, the “ability to block binding of C286.8A” value [1] was “did not inhibit binding”.
With “APP 645-695: Synthetic peptide, amino acids 645-695 of human APP695, C-terminal domain, devoid of any beta-amyloid sequence (AADRGLTTRPGSGLTNIKTEEISEVKMDAEFRHDSGYEVHHQKLVFFAEDV; isoform APP695; UniProt P05067 645-695, looked up, fragment)” the “ability to block binding of C286.8A” value [1] was “did not inhibit binding”.
For “N-Dansyl-Ile-Ser-Glu-Val-Lys-Met-Asp-Ala-Glu-Phe-Arg-NH2”, the cleaved bond [4] was “Met-Asp, minor; also recorded: Glu-Val, major”, the cleaved bond [5] was “Glu-Val, major; also recorded: Met-Asp, minor” and the cleaved bond [6] was “E-V and M-D”. The cleaved bond [7] was “E-V and M-D”.
With “N-dansyl-Ile-Ser-Glu-Val-Lys-Met-Asp-Ala-Glu-Phe-Arg-His-Asp-Asp-Asp-Asp” the cleaved bond [8] was “V-K, major and K-M and M-D and S-E and E-V”.
